Our source for the response rate, CC50 and melting point values is patent publication US11447501B2, “Biphenyl-containing diarylpyrimido compounds, pharmaceutically-acceptable salts thereof, composition and preparation thereof” (Fudan University, priority 2019, dated 2022).

Molecules are shown by their SMILES. A value given as a limit tells only on which side of the number the result lay.

Assay in the first series: not given
As to conditions: clinical use; cited from earlier work.
As to `Cc1cc(C#N)cc(C)c1Oc1nc(Nc2ccc(C#N)cc2)nc(N)c1Br` [ETR, Etravirine], the response rate is 36.5%.

A further series in a line: Cytotoxicity in uninfected MT-4 cells (MTT assay). In kind it is cell-based. As to conditions: human, uninfected MT-4 cells; concentration that reduces normal uninfected MT-4 cell viability by 50%. On the technique in general: Formazan colour is commonly taken as a measure of viable cells.
The term CC50 denotes the concentration at which the toxic effect on the cells reaches its halfway point. Consider `Cc1cc(C#N)cc(C)c1Oc1nc(Nc2ccc(C#N)cc2)nc(N)c1Br` [ETR, Etravirine], for which the CC50 at 7 d is greater than 4.61 µM.

In turn, `Cc1ccnc2c1NC(=O)c1cccnc1N2C1CC1` [NVP, Nevirapine] registered a CC50 at 7 d greater than 15 µM.

The series is the same for the next values; noted with them: human; concentration that reduces normal uninfected MT-4 cell viability by 50%.
`O=C1Nc2ccc(Cl)cc2[C@@](C#CC2CC2)(C(F)(F)F)O1` [EFV, Efavirenz] gave a CC50 at 7 d greater than 6.34 µM.

Assay in a further series: not given
Settings: not given
One may read the melting point as the temperature of the solid-liquid transition. Molecule `N#Cc1ccc(Nc2nc(Oc3ccc(-c4ccc(C#N)cc4F)cc3)c3sccc3n2)cc1` [Example 1] yielded a melting point of 272.5 to 273.6 °C. `N#Cc1ccc(Nc2nc(Oc3ccc(-c4ccc(C#N)c(F)c4)cc3)c3sccc3n2)cc1` [Example 2] had a melting point of 258.8 to 260.3 °C. Molecule `N#Cc1ccc(Nc2nc(Oc3ccc(-c4ccc(C#N)cc4Cl)cc3)c3sccc3n2)cc1` [Example 3] gave a melting point greater than 300 °C. Molecule `N#Cc1ccc(Nc2nc(Oc3ccc(-c4ccc(C#N)c(Cl)c4)cc3)c3sccc3n2)cc1` [Example 4] gave a melting point of 246.3 to 247.7 °C. Still for that read-out and setting: next, `Cc1cc(C#N)ccc1-c1ccc(Oc2nc(Nc3ccc(C#N)cc3)nc3ccsc23)cc1` [Example 5]: 278.4 to 279.5 °C. For the molecule `Cc1cc(-c2ccc(Oc3nc(Nc4ccc(C#N)cc4)nc4ccsc34)cc2)ccc1C#N` [Example 6], the melting point lay within 256.5 to 257.9 °C. In turn, `N#Cc1ccc(Nc2nc(Oc3ccc(-c4ccc(C#N)cc4F)cc3F)c3sccc3n2)cc1` [Example 7] came in with a melting point of 295.3 to 297 °C.

As to `N#Cc1ccc(Nc2nc(Oc3ccc(-c4ccc(C#N)c(F)c4)cc3F)c3sccc3n2)cc1` [Example 8], the melting point was greater than 300 °C. Molecule `Cc1cc(-c2ccc(C#N)cc2F)ccc1Oc1nc(Nc2ccc(C#N)cc2)nc2ccsc12` [Example 9] displayed a melting point of 268.5 to 271 °C.

For `Cc1cc(-c2ccc(C#N)c(F)c2)ccc1Oc1nc(Nc2ccc(C#N)cc2)nc2ccsc12` [Example 10], the melting point fell in the range of 299.3 to 300.2 °C.

`Cc1cc(C#N)ccc1-c1ccc(Oc2nc(Nc3ccc(C#N)cc3)nc3ccsc23)c(F)c1` [Example 13] registered a melting point of 275.2 to 276.8 °C.

Molecule `Cc1cc(-c2ccc(Oc3nc(Nc4ccc(C#N)cc4)nc4ccsc34)c(F)c2)ccc1C#N` [Example 14] had a melting point of 252.5 to 254.2 °C.

Regarding `Cc1cc(-c2ccc(C#N)cc2C)ccc1Oc1nc(Nc2ccc(C#N)cc2)nc2ccsc12` [Example 15], the melting point is 262.4 to 263.7 °C. In turn, `Cc1cc(-c2ccc(Oc3nc(Nc4ccc(C#N)cc4)nc4ccsc34)c(C)c2)ccc1C#N` [Example 16] returned a melting point of 259.4 to 261.1 °C. Molecule `Cc1cc(C#N)ccc1-c1ccc(Oc2nc(Nc3ccc(C#N)cc3)nc3ccsc23)cc1C` [Example 17] came in with a melting point of 274.3 to 275.8 °C. The same measure, in the same setting: next, `Cc1cc(-c2ccc(Oc3nc(Nc4ccc(C#N)cc4)nc4ccsc34)cc2C)ccc1C#N` [Example 18]: 264.9 to 266.2 °C.
